The structures appear in SMILES notation.

The target in this assay is GABA-A receptor; anion channel. In words: Displacement of [3H]flunitrazepine binding from GABA-A central benzodiazepine receptor of rat cerebral cortical membrane.
Turning to `O=c1cc(-c2ccccc2[N+](=O)[O-])oc2ccc([N+](=O)[O-])cc12`, the Ki was more than 10000 nM.

In the case of `O=c1cc(-c2ccc([N+](=O)[O-])cc2)oc2ccc([N+](=O)[O-])cc12`, the Ki was more than 10000 nM.

Regarding `O=c1c(Br)c(-c2ccccc2)oc2ccccc12`, the Ki was more than 75000 nM.

As to `O=c1cc(-c2ccccc2)oc2ccccc12` [FLAVONE], the affinity, expressed as Ki, was 1000 nM.

`O=c1cc(-c2ccccc2)oc2ccc(Br)cc12` [6-BROMOFLAVONE]: the inhibition constant (Ki) stood at 75 nM.

`O=c1cc(-c2ccccc2[N+](=O)[O-])oc2ccccc12`: the Ki is more than 20000 nM.

`O=c1cc(-c2ccccc2)oc2ccc(F)cc12` gave a Ki of 4500 nM.

Regarding `O=c1cc(-c2cccc(Br)c2)oc2ccc(Br)cc12`, the Ki is 19 nM.

Turning to `O=c1cc(-c2cccc([N+](=O)[O-])c2)oc2ccc([N+](=O)[O-])cc12`, the Ki worked out at 26 nM.

In the case of `O=c1c(Br)c(-c2cccc([N+](=O)[O-])c2)oc2ccccc12`, the Ki was more than 20000 nM.

The compound `O=c1cc(-c2cccc(Br)c2)oc2ccc([N+](=O)[O-])cc12` displayed a Ki of 25 nM. This lies in the double-digit nanomolar range.

In turn, `O=c1cc(-c2cccc([N+](=O)[O-])c2)oc2ccccc12` came in with an inhibition constant Ki of 285 nM.

For `O=c1cc(-c2ccccc2[N+](=O)[O-])oc2ccc(Br)cc12`, affinity was put at a Ki of 208 nM.

In turn, `O=c1cc(-c2cccc([N+](=O)[O-])c2)oc2ccc(F)cc12` had a Ki of 180 nM.

With `O=c1cc(-c2ccc([N+](=O)[O-])cc2)oc2ccc(Br)cc12`, the affinity, expressed as Ki, was 200 nM.

Consider `O=c1cc(-c2ccc(Br)cc2)oc2ccccc12`, for which the inhibition constant (Ki) was more than 20000 nM.

`O=c1c(Br)c(-c2ccccc2)oc2ccc(Br)cc12` had a Ki of more than 75000 nM.

Compound `O=c1cc(-c2ccccc2)oc2ccc([N+](=O)[O-])cc12` gave a Ki of 275 nM.

Take `O=c1cc(-c2cccc(Br)c2)oc2ccccc12`: the Ki came to 413 nM.

As to `O=c1cc(-c2ccccc2)oc2ccc(Cl)cc12` [6-CHLOROFLAVONE], affinity was put at a Ki of 164 nM.

`O=c1cc(-c2cccc([N+](=O)[O-])c2)oc2ccc(Cl)cc12` came in with a Ki of 8 nM.

As for `O=c1cc(-c2cc([N+](=O)[O-])cc([N+](=O)[O-])c2)oc2ccccc12`, the Ki is more than 20000 nM.

For the compound `O=c1cc(-c2cccc(Cl)c2)oc2ccccc12`, the affinity, expressed as Ki, was 614 nM.

Values taken from ChEMBL document CHEMBL1130499, “Synthesis of halogenated/nitrated flavone derivatives and evaluation of their affinity for the central benzodiazepine receptor” (Bioorg Med Chem Lett, 1997).
